Results published in patent publication US20120064008A1, “COMPOSITIONS FOR THE TREATMENT OF METASTATIC CANCER AND METHODS OF USE THEREOF” (priority 2009, published 2012).
Where two headings read alike, the source gives them in different places.

Tests used:
PC-3MLN4 cells = experiment: Normalized mitotic index (histone H3 phospho-Serine-28), PC-3MLN4; type: cell-based; settings: Homo sapiens, at 1 μM; normalized against vehicle-treated cells; read-out: Normalized mitotic index PC-3MLN4
Description: (§1) The mitotic index for each agent was normalized against those obtained from vehicle-treated cells, and compared with the activity of paclitaxel, a known inducer of mitotic arrest.

PC-3M cells = experiment: Normalized mitotic index (histone H3 phospho-Serine-28), PC-3M; type: cell-based; settings: Homo sapiens, at 1 μM, normalized against vehicle-treated cells, read-out: Normalized mitotic index PC-3M
Description: as §1

AT6.1 cells = experiment: Normalized mitotic index (histone H3 phospho-Serine-28), AT6.1; type: cell-based; settings: Rattus norvegicus, at 1 μM; normalized against vehicle-treated cells; read-out: Normalized mitotic index AT6.1
Description: as §1

[1] = system: AT6.1 Dunning rat prostate carcinoma; experiment: Survival in intravenous AT6.1 Dunning rat prostate carcinoma lung metastasis model; type: in vivo, nu/nu mice; settings: 10 mg/kg three times a week
Method: Many anti-tumor drugs are tested only for their ability to prevent primary tumor growth or to prevent the dissemination of metastatic cells. To accomplish this, the drug is usually administered shortly after the primary tumor is established. […] The benzimidazoles described herein were evaluated in an experimental metastases model in the lungs of nude mice following tail-vein injection of Dunning rat AT6.1 prostate carcinoma. […] In order to achieve greater bioavailability, we first solubilized benzimidazoles in DNTC formulation and then diluted with saline prior to injection.
Inbred male nu/nu mice age 6-8 weeks were obtained from Massachusetts General Hospital (Boston, Mass.). The mice were virus antibody free, age and weight matched for experimental use and fed with a balanced rodent diet ad libitum. AT6.1 Dunning rat prostate cells were maintained as described above. 1×10^4 log-phase cells were injected via tail vein in 0.1 mL Hanks solution. Vehicle or drug treatment was started on day 5 post inoculation and given three times a week (Monday, Wednesday and Friday) via intraperitoneal injection in 0.5 mL volume. Benzimidazole drugs were prepared in the combination carrier [DMSO (12.5%), NMP (37.5%), TWEEN®-80 (25%) and CrEL (25%)] and diluted in saline. Vehicle control was prepared by diluting the combination carrier with saline.
During the course of treatment, the mice were monitored for toxicity by measuring body weight. […] Animals were euthanized with CO2 and tissues were collected for further analysis. The animals and experiments used in these studies were approved by the institutional animal care committee according to Children's Hospital Boston ARCH guidelines.
To distinguish differences in survival between these groups, the percent increase in life span (ILS %), defined as the percent increase in the mean time to death of drug-treated animals over the corresponding time to death for vehicle-treated mice, was calculated.

[2] = Combination with paclitaxel, Cyquant cell growth inhibition, CompuSyn median-dose effect analysis; type: cell-based; settings: alone or in combination, read-out: Dose Tax
Method: Cell growth inhibition assays were performed using Cyquant reagent as described above. Drug interactions were quantitated by median-dose effect analysis and combination index values as well as dose reduction index were derived using CompuSyn software (ComboSyn, Inc.), as described previously in the literature. CI values of <1, =1, and >1 indicate synergism, additivity and antagonism between the drugs, respectively.
All benzimidazole drugs were prepared using the combination carrier and diluted with culture medium prior to treatment.

[3] = system: paclitaxel-resistant PC3-TR prostate cancer cells; experiment: Cyquant cell viability assay, PC3-TR; type: cell-based, human; settings: 72 hours
Method: (§2) The cytotoxic effects of paclitaxel, fenbendazole, and albendazole were compared in paclitaxel-resistant PC3-TR and DU145-TR prostate cancer cells with their paclitaxel-sensitive counterparts, PC3 and DU145 cells. Cells were treated for 72 hours with vehicle, paclitaxel, fenbendazole or albendazole in various doses. Cell viability was measured using Cyquant assay, and percent control was calculated by dividing the fluorescent reading from drug-treated cells with those from vehicle-treated cells, indicating percentage of cell survival.

[4] = system: paclitaxel-resistant DU145-TR prostate cancer cells; experiment: Cyquant cell viability assay, DU145-TR; type: cell-based, human; settings: 72 hours
Method: as §2

PC3 cells [5] = experiment: Normalized mitotic index, PC3; type: cell-based, human; settings: 100 nM
PC3-TR cells [6] = experiment: Normalized mitotic index, PC3-TR; type: cell-based, human; settings: 100 nM
DU145 cells [7] = experiment: Normalized mitotic index, DU145; type: cell-based, human; settings: 100 nM
DU145-TR cells [8] = experiment: Normalized mitotic index, DU145-TR; type: cell-based, human; settings: 100 nM
PC3 cells [9] = experiment: % apoptotic cells, PC3; type: cell-based, human; settings: 100 nM
PC3-TR cells [10] = experiment: % apoptotic cells, PC3-TR; type: cell-based, human; settings: 100 nM
DU145 cells [11] = experiment: % apoptotic cells, DU145; type: cell-based, human; settings: 100 nM
DU145-TR cells [12] = experiment: % apoptotic cells, DU145-TR; type: cell-based, human; settings: 100 nM
PC-3TxR cells = experiment: Subcutaneous PC-3TxR tumors in nude mice; type: in vivo; settings: 10 mg/kg three times a week for 3 weeks
Method: PC-3TxR cells were inoculated subcutaneously in the flanks of the nude mice. When the tumors reached approximately 100 mm^3 in size, the mice were treated with vehicle, paclitaxel (10 mg/kg), fenbendazole (100 mg/kg) or albendazole (100 mg/kg) three times a week for 3 weeks. These benzimidazoles were prepared in DNTC and diluted with saline prior to injection.
PC-3TxR cells were inoculated subcutaneously in the flanks of the nude mice. When the tumors reached approximately 100 mm3 in size, the mice were treated with vehicle, paclitaxel (10 mg/kg), fenbendazole (100 mg/kg) or albendazole (100 mg/kg) three times a week for 3 weeks. These benzimidazoles were prepared in DNTC and diluted with saline prior to injection.

CC(=O)O[C@H]1C(=O)[C@@]2(C)[C@H]([C@H](OC(=O)c3ccccc3)[C@]3(O)C[C@H](OC(=O)[C@H](O)[C@@H](NC(=O)c4ccccc4)c4ccccc4)C(C)=C1C3(C)C)[C@]1(OC(C)=O)CO[C@@H]1C[C@@H]2O [Paclitaxel]
fold induction at 1 µM (PC-3MLN4 cells): 2.34
fold induction at 1 µM (PC-3M cells): 2.43
fold induction at 1 µM (AT6.1 cells): 2.1
percent increase in life span (ILS %) [1]: 30.2%
EC50 ([2]; Fa 0.50, listed as Tax): 937 nM
EC50 ([2]; Fa 0.50): 936 nM
EC50 ([2]; Fa 0.60): 1392 nM
cytotoxic effect against PC3-TR (PC-3TxR) [3]: refractory
cytotoxic effect against PC3-TR (PC-3TxR) ([3]; listed as taxol): less effective
cytotoxic effect against DU145-TR (DU-145TxR) [4]: refractory
cytotoxic effect against DU145-TR (DU-145TxR) ([4]; listed as taxol): less effective
Normalized mitotic index (6 hours) PC3 (PC3 cells [5]): 1.32
Normalized mitotic index (6 hours) PC3-TR (PC3-TR cells [6]): 1.56
Normalized mitotic index (6 hours) DU145 (DU145 cells [7]): 3.52
Normalized mitotic index (6 hours) DU145-TR (DU145-TR cells [8]): 0.86
% Apoptotic cells (72 hours) PC3 (PC3 cells [9]): 16.4%
% Apoptotic cells (72 hours) PC3-TR (PC3-TR cells [10]): 8.9%
% Apoptotic cells (72 hours) DU145 (DU145 cells [11]): 37.3%
% Apoptotic cells (72 hours) DU145-TR (DU145-TR cells [12]): 11.5%
growth of PC-3TxR tumors compared to the vehicle treated group (PC-3TxR cells): significantly greater
